Reference: patent publication US9586999B2, “Methods and compositions related to improving properties of pharmacological agents targeting nervous system” (University of Utah Research Foundation, priority 2006, dated 2017)
Entries after “also recorded” stand apart in the source; their conditions may differ.

Experiments:
[1] = test system: hippocampal kindled seizures; assay: Hippocampal kindled rat model of partial epilepsy; format: in vivo; conditions: i.p.; decreased from 5
sound-induced seizures = assay: Frings audiogenic seizure-susceptible mouse model of reflex epilepsy; format: in vivo; conditions: i.p., 4 mg/kg for time course, dose-response 1 h after dosing
Source text: (§1) The ability of individual modified peptides to prevent seizures induced by sound in the AGS-susceptible Frings mouse model can be assessed at the time of peak effect (White et al., 1992). For this test, individual mice are placed into a plexiglass cylinder (diameter, 15 cm; height, 18 cm) fitted with an audio transducer (Model AS-ZC; FET Research and Development, Salt Lake City, Utah), and exposed to a sound stimulus of 110 decibels (11 KHz) delivered for 20 seconds. Sound-induced seizures are characterized by wild running followed by loss of righting reflex with forelimb and hindlimb tonic extension. Mice not displaying hindlimb tonic extension are considered protected.
The two modified galanin analogs (GAL-BBB1 and GAL-BBB2) were administered i.p. to a group of Frings audiogenic seizure susceptible mice in a dose of 4 mg/kg. At various times after administration (i.e., 15, 30, 60, 120, and 240 min) each mouse was placed into a cylindrical test chamber fitted with an audio transducer and challenged with a high-intensity sound stimulus (110 dB, 11 KHz for 20 sec). Animals not displaying tonic hind-limb extension were considered protected. […] In a subsequent study, anticonvulsant efficacy was quantitated at the time to peak effect (i.e., 1 h) in a dose-response study.
as §1, with “analogs” for “peptides”
At various times after administration (i.e., 15, 30, 60, 120, and 240 min) each mouse was placed into a cylindrical test chamber fitted with an audio transducer and challenged with a high-intensity sound stimulus (110 dB, 11 KHz for 20 sec).

[2] = test system: formalin-induced paw licking; assay: Mouse formalin test of inflammatory pain; format: in vivo
Procedure: An injection of 0.5% formalin is made into the planter region of a mouse right hind paw. This elicits a distinct biphasic behavioral profile characterized by the mouse licking the affected paw. Immediately following the injection the mouse licks the paw for about 10 minutes. This is phase 1 (acute) and is followed by a brief latent period where there is little behavioral activity. A more prolonged period of about 20 to 30 minutes of paw licking ensues which constitutes phase 2 (inflammatory).
Prior to the administration of the active peptide, drug or vehicle each mouse undergoes a 15-minute conditioning period in one of several 6″ tall plexiglass observation tubes (4″ diameter) that are placed in front of a mirror. […] One hour after treatment, formalin was injected sub-dermally (20 μl; 27 gauge needle) into the plantar surface of the right hind foot. The bevel of the needle is placed facing down toward the skin surface. Following the injection of the formalin each animal is observed for first 2 minutes of each 5 minute epoch for a total of 45 minutes. The cumulative length of licking for each 2 minute time period was measured. An animal receiving the requisite volume of vehicle was alternated with each mouse given GAL-BBB2, Gal 1-16, or gabapentin. Animals were euthanized following the conclusion of the experiment.
Area under the curve (AUC) determination was made using the GraphPad Prism Version 3.03. Total AUC is calculated for both the test and control groups for both the acute and inflammatory phases. The AUC for individual animals for each phase is also calculated and converted to percentage of total AUC of control. The average percentages and SEM for both the drug treated and control were calculated and tested for significant difference.

6 Hz limbic seizures = assay: 6 Hz limbic (psychomotor) seizure test; format: in vivo, mouse
Source text: Mice not displaying limbic seizures were considered protected.
As mentioned above, the 6 Hz seizure becomes more resistant to block by antiepileptic drugs as the current is increased from 22 mA to 44 mA.

[3] = test system: tonic-extension (maximal electroshock) seizures; assay: Maximal electroshock seizure (MES) test; format: in vivo, mouse; conditions: 4 mg/kg i.p., tested one hour later
Source text: Abolition of the hindleg tonic extensor component of the seizure is used as the endpoint.

With “Sar-Trp-Thr-Leu-Asn-Ser-Ala-Gly-Tyr-Leu-Leu-Gly-Pro-Lys-Lys-(Lys-palm)-Lys-NH2 [NAX 5055]” the seizure score [1] was 3, the “anticonvulsant effect against sound-induced seizures” value (shortened to “anticonvulsant effect”) (sound-induced seizures; 4 mg/kg) was “effective; also recorded: time-dependent anticonvulsant activity; also recorded: dose-dependent protection” and the “anticonvulsant effect” value (sound-induced seizures; listed as GAL-BBB2, 4 mg/kg) was “dose-dependent effect”. The “anticonvulsant effect” value (sound-induced seizures; listed as Gal BBB-2, 4 mg/kg) was “time (inset) and dose-dependent protection”, the “effect compared with gabapentin” value ([2]; 5 mg/kg) was “equivalent to a 10 mg/kg dose of gabapentin” and the “paw licking, acute and inflammatory phase” value ([2]; 0.52-5 mg/kg i.p., 1 h before formalin) was “dose-dependent reduction in paw licking”. For the same substance, the “phase II response at the active dose” value ([2]; mouse formalin assay) was “(“flat phase II”)”, the Active at ([2]; mouse formalin assay of inflammatory pain) was 5 mg/kg and the “potency in mouse formalin assay” value ([2]; mouse, in vivo) was “potent”. The “activity in pharmaco-resistant seizure model” value (6 Hz limbic seizures; 4 mg/kg) was “active”, the “potency and efficacy relative to native peptide fragment” value (6 Hz limbic seizures; 6 Hz (32 mA), i.c.v.) was “more potent and efficacious than the native peptide fragment GAL(1-16)” and the “% Protection at 2 hours afforded by a dose of 4 mg/kg, i.p.” value (6 Hz limbic seizures; 2 h, 4 mg/kg i.p.) was 100%. For the same substance, the “% Protection at 4 hours afforded by a dose of 4 mg/kg, i.p.” value (6 Hz limbic seizures; 4 h, 4 mg/kg i.p.) was 0%, the “ED50 in the 6 Hz limbic seizure model (in Table 14 in parentheses)” value (6 Hz limbic seizures; i.p., SAR analogs) was “(0.8 mg/kg)” and the “ED50 following i.c.v. administration” value (6 Hz limbic seizures; intracerebroventricular, 6 Hz (32 mA)) was 0.07 nmol. For the same substance, the “anticonvulsant activity following subcutaneous administration” value (6 Hz limbic seizures; s.c., 32 mA, 60 min, CF-1 mice) was “preserved; also recorded: retained” and the “activity in maximal electroshock seizure test” value [3] was “completely inactive”.
